Data published in patent US7129381B2, “Glucopyranosyloxybenzylbenzene derivatives, medicinal compositions containing the same and intermediates in the production thereof” (Kissei Pharmaceutical Co., Ltd., priority 2000, dated 2006).

Test system: ICR mice
Test: Acute toxicity test
Type: in vivo
Conditions: 300 mg/kg subcutaneous, male ICR mice, 5 animals, observation for 24 hours
Protocol: A mixture (saline:polyethylene glycol 400:ethanol =5:4:1) was added to a test compound to prepare 30 mg/mL solution. As experimental animals, 5 week old male ICR mice (CLEA JAPAN, INC. 29–35 g, 5 animals in each group), which were fasted for 4 hours, were used. The above solution was subcutaneously administered at a dose of 10 mL/kg (300 mg/kg) to the above experimental animals and then observation for 24 hours was performed.

COc1ccc(Cc2c(C)cc(C)cc2O[C@@H]2O[C@H](CO)[C@@H](O)[C@H](O)[C@H]2O)cc1 [Example 37, 2-(4-Methoxybenzyl)-3,5-dimethylphenyl β-D-glucopyranoside]
Death number: 0/5
